ChEMBL document CHEMBL4130530, “Lucky Switcheroo: Dramatic Potency and Selectivity Improvement of Imidazoline Inhibitors of Human Carbonic Anhydrase VII” (ACS Med Chem Lett, 2017)

How the values were obtained:
Carbonic anhydrase 4 = Carbonic anhydrase 4 (Homo sapiens, UniProt P22748); assay: Inhibition of recombinant human carbonic anhydrase 4 incubated for 15 mins prior to testing measured for 10 to 100 secs by phenol red based stopped-flow CO2 hydration assay
Carbonic anhydrase 1 = Carbonic anhydrase 1 (Homo sapiens, UniProt P00915); assay: Inhibition of recombinant human carbonic anhydrase 1 incubated for 15 mins prior to testing measured for 10 to 100 secs by phenol red based stopped-flow CO2 hydration assay
Carbonic anhydrase 7 = Carbonic anhydrase 7 (Homo sapiens, UniProt P43166); assay: Inhibition of recombinant human carbonic anhydrase 7 incubated for 15 mins prior to testing measured for 10 to 100 secs by phenol red based stopped-flow CO2 hydration assay
Carbonic anhydrase 2 = Carbonic anhydrase 2 (Homo sapiens, UniProt P00918); assay: Inhibition of recombinant human carbonic anhydrase 2 incubated for 15 mins prior to testing measured for 10 to 100 secs by phenol red based stopped-flow CO2 hydration assay

Chain of Carbonic anhydrase 1 (P00915 whole entry): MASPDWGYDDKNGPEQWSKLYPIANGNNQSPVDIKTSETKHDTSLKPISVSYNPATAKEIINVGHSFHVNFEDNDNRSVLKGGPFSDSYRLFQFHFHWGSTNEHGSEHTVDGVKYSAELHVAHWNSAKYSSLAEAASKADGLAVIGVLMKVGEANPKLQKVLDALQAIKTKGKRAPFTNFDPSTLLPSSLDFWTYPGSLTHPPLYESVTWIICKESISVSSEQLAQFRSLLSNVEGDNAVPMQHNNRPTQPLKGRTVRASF
Chain of Carbonic anhydrase 7 (P43166 whole entry): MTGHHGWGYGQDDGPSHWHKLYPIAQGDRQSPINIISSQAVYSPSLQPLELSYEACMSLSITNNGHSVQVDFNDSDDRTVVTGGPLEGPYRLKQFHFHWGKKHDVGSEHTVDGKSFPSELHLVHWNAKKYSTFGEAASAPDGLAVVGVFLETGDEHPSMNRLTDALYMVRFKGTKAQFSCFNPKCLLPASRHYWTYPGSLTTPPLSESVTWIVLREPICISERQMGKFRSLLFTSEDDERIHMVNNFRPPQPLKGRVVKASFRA
Chain of Carbonic anhydrase 4 (P22748 whole entry): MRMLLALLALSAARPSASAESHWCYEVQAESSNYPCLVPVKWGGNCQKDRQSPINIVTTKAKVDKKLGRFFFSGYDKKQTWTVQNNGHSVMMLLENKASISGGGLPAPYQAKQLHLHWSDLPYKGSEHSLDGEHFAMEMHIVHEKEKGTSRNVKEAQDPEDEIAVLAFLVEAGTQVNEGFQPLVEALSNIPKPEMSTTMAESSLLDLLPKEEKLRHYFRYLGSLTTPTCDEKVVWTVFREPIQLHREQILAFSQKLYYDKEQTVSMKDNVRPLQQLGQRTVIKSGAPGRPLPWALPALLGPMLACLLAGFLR

Ki (Carbonic anhydrase 4) | Ki (Carbonic anhydrase 1) | Ki (Carbonic anhydrase 7) | Ki (Carbonic anhydrase 2) | Compound
9.73 µM | 2.34 µM | 0.303 µM | 0.0761 µM | NS(=O)(=O)c1ccc(N2CCN=C2c2ccc(F)cc2)cc1
 |  |  | 0.742 µM | NS(=O)(=O)c1ccc(C2=NCCN2c2ccc(F)cc2)cc1
 |  |  | 0.866 µM | CCOc1ccccc1N1CCN=C1c1ccc(S(N)(=O)=O)cc1
 |  |  | 0.0533 µM | COc1ccc(N2CCN=C2c2ccc(S(N)(=O)=O)cc2)cc1
 |  |  | 0.0617 µM | Cc1ccccc1N1CCN=C1c1ccc(S(N)(=O)=O)cc1
 |  |  | 0.376 µM | NS(=O)(=O)c1ccc(C2=NCCN2c2ccccc2)cc1

More lines, now with the values behind:

Compound | Ki (Carbonic anhydrase 4) | Ki (Carbonic anhydrase 1) | Ki (Carbonic anhydrase 7) | Ki (Carbonic anhydrase 2)
NS(=O)(=O)c1ccc(N2CCN=C2c2ccc(Cl)cc2)cc1 | 8.14 µM | 0.96 µM | 0.269 µM | 0.0467 µM
NS(=O)(=O)c1ccc(C2=NCCN2c2cncnc2)cc1 |  |  |  | 0.703 µM
NS(=O)(=O)c1ccc(C2=NCCN2c2ccc(Cl)cc2)cc1 |  |  |  | 0.182 µM
COc1ccc(N2CCN=C2c2ccc(S(N)(=O)=O)cc2)cc1OC |  |  |  | 0.724 µM
NS(=O)(=O)c1ccc(C2=NCCN2c2cccnc2)cc1 |  |  |  | 0.848 µM
